Marks after values point to notes of the source that are not given here.
Legend:
[1] = system: human lungs cancer cell strain A549; experiment: Tumor inhibitory effect on nude mice bearing A549 tumors; type: in vivo
Description: After digesting and detaching the monolayer-cultured human lungs cancer cell strain A549 (purchased from Shanghai FuMeng Gene Bio-technology Co., Ltd.), cells were collected and resuspended in the serum-free culture medium, and the concentration was adjusted to be 2×10^6/0.2 mL. 0.2 mL cell suspension was taken by injector and transplanted under the skin of square scapula behind left armpit of nude mice, 0.2 mL for each mouse. The tumor volume was measured every 2 or 3 days. The nude mice bearing tumors which rapidly grew without any diabrosis were selected after two weeks. Under the condition of asepsis, the tumors were removed, and cut into tumor tissue with the diameter of approximately 2-3 mm, and then inoculate the tissue under the skin of square scapula behind left armpit of nude mice by trocar. After repetition in three generations, the nude mice received administration randomly in groups excluding the ones bearing too large or too small tumors, when the tumor grew to be about 100 mm^3 in volume.
The selected animals were 6-week old BALB/C nude mice. The male mice were 20-22 g in weight and provided by Shanghai Laboratory Animal Center (SIPPR BK) (production permit No. SCXK (Hu) 2008-0016). The experimental period was totally 111 days.
The experiment was randomly divided into 2 groups, the negative control group consisting of 12 mice (solvent administration only) and treatment group consisting of 12 mice (compound C, 100 mg/kg).
Ethanol was used as cosolvent to promote dissolution of compound C, adding 0.5 w/v % carboxymethyl cellulose to form suspension with a 0.5% final concentration of carboxymethyl cellulose and a 10 w/v % final concentration of ethanol, and then, using ultrasound to form uniform suspension. The dosage for intragastric administration was 0.1 ml/10 g, and the negative control group was only subjected to the same solvent. On the first day of experiment, compound C was given 100 mg/kg in the morning and in the evening respectively, and afterwards, 100 mg/kg was given in every morning only. The negative control group was only given 0.1 ml/10 g of 10 v/v % ethanol 0.5 w/v % carboxymethyl cellulose in every morning.
Index: observing state of animals and measuring body weight daily; measuring tumors by calipers every two days. Sacrifice the animal in 24 hours after the last administration and measure the volume and size of tumor. Dissecting the animal and removing the tumor; weighing the tumor and nude mice; and then, drawing the curves of tumor volume and growth, nude mouse weight, tumor inhibition rate and animal death rate.
Tumor diameter measurement is used to observe the antitumor effect of the test substances dynamically. The formula for tumor volume (TV) calculation is: v=0.5×a×b^2(mm^3); wherein, a and b stand for length and width respectively.
The relative tumor volume (RTV) is calculated according to the measurement result; RTV=Vt/V0, wherein V0 is the tumor volume measured at the beginning of administration (i.e. d0) and Vt is the tumor volume at each measurement.
The index to evaluate antitumor activity is relative tumor proliferation rate T/C (%)
In the above formula, TRTV: RTV of treatment group, CRTV: RTV of negative control group.

[2] = system: Human lung cancer cells (A549); experiment: Anticancer effect in vitro on A549 cells (MTT, GI50); type: cell-based; settings: A549, 72 hours
Description: The inhibitory effect on the cancer cells of the compounds prepared in Example 1-Example 13, Example 20, Example 48, Example 49 and Example 57 was determined in vitro using cancer cells. The results are shown in table 2, and the specific detection methods are as follows:
Human lung cancer cells were (A549, purchased from Shanghai FuMeng Gene Bio-technology Co., Ltd.) cultured in DMEM containing 2 m M/L-glutamine and 10% FBS, and inoculated in 96-well plate, 200 μL/well and 2000 cells per well; the plate was preincubated for 24 hours under the condition of 5% CO2 and 100% relative humidity at 37° C., allowing for cell adherence.
When the cells adhered, the supernatant was removed, and 200 μL drug-containing culture medium was added with different concentration of compounds into each well (in concentration of 20 μg/ml, 12.5 µg/ml, 6.25 μg/ml, […], 1.5625 μg/ml and 0.78125 μg/ml), 3 multiple wells were set up for each drug concentration as well as blank control (cell culture medium without cells), and drug-free control (with no drugs, filled with complete medium in equal amount only), cultured for 72 hours under the condition of 5% CO2 incubator at 37° C. (100% relative humidity).
After the culture ended, the supernatant was carefully removed, and adding 200 μl DMEM culture medium containing 3% FBS with 500 μg/ml MTT into each well, and culturing for 4 hours under the condition of 5% CO2 incubator at 37° C. (100% relative humidity). After the supernatant was discarded, 150 μL DMSO was added in each well for solving. the GI50 value was measured by detecting the absorbance in the 570 nm wavelength.

[3] = biological target: T1, receptor tyrosine kinase EGFR (Homo sapiens, UniProt P00533); experiment: Inhibitory effect on receptor tyrosine kinase EGFR (ELISA, Poly(Glu, Tyr)4:1, PY99 antibody); type: biochemical; settings: ATP 4 μM, 1 hour at 37° C.
T1 construct: purchased Shanghai 3bio Technology Co., Ltd. Lot No. 4018780925
T1 sequence (P00533 25-1210): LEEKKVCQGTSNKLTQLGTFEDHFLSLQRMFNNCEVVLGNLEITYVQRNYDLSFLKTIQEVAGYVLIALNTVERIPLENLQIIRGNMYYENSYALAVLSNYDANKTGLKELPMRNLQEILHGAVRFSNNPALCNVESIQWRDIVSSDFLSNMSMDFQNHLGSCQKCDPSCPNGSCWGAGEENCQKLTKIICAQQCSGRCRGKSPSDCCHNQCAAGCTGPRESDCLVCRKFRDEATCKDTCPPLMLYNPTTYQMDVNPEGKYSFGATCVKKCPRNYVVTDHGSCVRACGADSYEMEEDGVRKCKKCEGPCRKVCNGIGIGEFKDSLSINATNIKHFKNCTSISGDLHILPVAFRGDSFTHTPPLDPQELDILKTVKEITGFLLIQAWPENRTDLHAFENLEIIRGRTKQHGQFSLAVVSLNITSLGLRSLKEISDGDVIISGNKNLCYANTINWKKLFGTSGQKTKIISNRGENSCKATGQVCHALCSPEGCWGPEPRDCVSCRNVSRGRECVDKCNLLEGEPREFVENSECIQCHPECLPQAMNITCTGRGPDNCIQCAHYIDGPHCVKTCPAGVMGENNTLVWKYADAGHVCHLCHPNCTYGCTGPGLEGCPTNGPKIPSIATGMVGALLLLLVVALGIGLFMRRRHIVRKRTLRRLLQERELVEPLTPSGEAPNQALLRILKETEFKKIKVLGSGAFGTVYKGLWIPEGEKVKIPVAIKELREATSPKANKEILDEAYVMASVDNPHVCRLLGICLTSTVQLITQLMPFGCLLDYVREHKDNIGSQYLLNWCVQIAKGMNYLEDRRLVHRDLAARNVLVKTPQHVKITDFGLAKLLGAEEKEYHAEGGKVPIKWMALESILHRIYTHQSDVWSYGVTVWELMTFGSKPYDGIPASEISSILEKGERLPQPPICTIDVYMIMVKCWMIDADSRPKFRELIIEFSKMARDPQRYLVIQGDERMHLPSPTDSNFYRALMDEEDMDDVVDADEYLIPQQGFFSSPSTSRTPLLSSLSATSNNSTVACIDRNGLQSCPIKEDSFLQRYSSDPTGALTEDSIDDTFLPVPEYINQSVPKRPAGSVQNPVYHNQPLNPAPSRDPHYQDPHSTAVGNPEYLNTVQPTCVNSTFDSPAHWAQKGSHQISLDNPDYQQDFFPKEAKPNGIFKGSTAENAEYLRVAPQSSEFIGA
Method in brief: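 Poly(Glu,Tyr)4:1-coated plates; kinase reaction with 4 μM ATP and compound at 1.0000–0.00024 μg/ml, run 1 h at 37 °C. Phosphotyrosine detected with PY99 and HRP anti-mouse IgG, OPD colour read at A492, and inhibition rate calculated.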

[4] = A549 in nude mice, 100 mg/kg intragastric, 21st day after administration

| Structure (SMILES) | GI50 [2] | IC50 [3] | further results |
| --- | --- | --- | --- |
| COc1cc2ncnc(Nc3ccc(F)c(Cl)c3)c2cc1OCCCN1CCC2(COC2)C1 [Example 2, 4-(3′-chloro-4′-fluorophenylamino)-6-[3-(2-oxa-6-azaspiro[3.4]octane-6-yl)-propoxy]-7-methoxyquinazoline] | 20.4 µM | – | body weight of the nude mice compared with the control group ([1]; 100 mg/kg intragastric, FIG. 1): consistent fluctuation; average tumor weight compared with the negative group ([1]; 21st day after administration, 100 mg/kg, P<0.05): less than the negative group; Tumor mass [1, 4]: 0.55 ± 0.43 g; Tumor volume [1, 4]: 515.4 ± 388.0** mm^3; Tumor inhibition rate ([1]; A549 in nude mice, 100 mg/kg intragastric, from tumor weight): 47.62%; T/C % ([1]; A549 in nude mice, 100 mg/kg intragastric, relative tumor proliferation rate): 43.44%; RTV ([1]; A549 in nude mice, 100 mg/kg intragastric, relative tumor volume Vt/V0): 4.57 ± 2.11; tumor volume and size compared with the control group ([1]; two weeks after administration, 100 mg/kg, p<0.05, FIG. 2): significantly less than the control group |
| COc1cc2ncnc(Nc3ccc(F)c(Cl)c3)c2cc1OCCN1CCC2(CC1)COC2 [Example 6] | 20.7 µM | 0.01 to 0.1 µM | – |
| COc1cc2ncnc(Nc3ccc(F)c(Cl)c3)c2cc1OCCCN1CCC2(CCOC2)C1 (centres unmarked) [Example 7, 4-(3′-chloro-4′-fluorophenylamino)-6-[3-(2-oxa-7-azaspiro[4.4]nonane-7-yl)-propoxy]-7-methoxyquinazoline] | 15.1 µM | 0.01 to 0.1 µM | – |
| COc1cc2ncnc(Nc3ccc(F)c(Cl)c3)c2cc1OCCN1CCC2(CCOC2)C1 (centres unmarked) [Example 8, 4-(3′-chloro-4′-fluorophenylamino)-6-[2-(2-oxa-7-azaspiro[4.4]nonane-7-yl)-oxethyl]-7-methoxyquinazoline] | 23.4 µM | 0.01 to 0.1 µM | – |
| COc1cc2ncnc(Nc3ccc(F)c(Cl)c3)c2cc1OCCN1C2CCC1COC2 [Example 13, 4-(3′-chloro-4′-fluorophenylamino)-6-[2-(3-oxa-8-azabicyclo[3.2.1]octane-8-yl)-oxethyl]-7-methoxyquinazoline] | 28.8 µM | 0.01 to 0.1 µM | – |

Further lines, with some results ahead:

| GI50 [2] | IC50 [3] | Structure (SMILES) | further results |
| --- | --- | --- | --- |
| 24.3 µM | 0.01 to 0.1 µM | COc1cc2ncnc(Nc3ccc(F)c(Cl)c3)c2cc1OCCCN1CCC2(CCOCC2)C1 [Example 9, 4-(3′-chloro-4′-fluorophenylamino)-6-[3-(8-oxa-2-azaspiro[4.5]decane-2-yl)-propoxy]-7-methoxyquinazoline] | – |
| 35.2 µM | 0.01 to 0.1 µM | COc1cc2ncnc(Nc3ccc(F)c(Cl)c3)c2cc1OCCN1CCC2(CCOCC2)C1 [Example 10, 4-(3′-chloro-4′-fluorophenylamino)-6-[2-(8-oxa-2-azaspiro[4.5]decane-2-yl)-oxethyl]-7-methoxyquinazoline] | – |
| 26.6 µM | 0.1 to 1 µM | COc1cc2ncnc(Nc3ccc(F)c(Cl)c3)c2cc1OCCN1CC2CCC(C1)O2 [Example 11, 4-(3′-chloro-4′-fluorophenylamino)-6-[2-(8-oxa-3-azabicyclo[3.2.1]octane-3-yl)-oxethyl]-7-methoxyquinazoline] | – |
| 17.8 µM | 0.0001 to 0.01 µM | C#Cc1cccc(Nc2ncnc3cc(OC)c(OCCCN4CC5(CNC(=O)O5)C4)cc23)c1 [Example 48] | – |
| 21 µM | 0.0001 to 0.01 µM | C#Cc1cccc(Nc2ncnc3cc(OC)c(OCCCN4CC5(C4)CN(C)C(=O)O5)cc23)c1 [Example 49] | – |
| 23.8 µM | > 1 µM | COc1cc2ncnc(Nc3ccc(F)c(Cl)c3)c2cc1OCCN1CC2(CNC(=O)C2)C1 [Example 57, 4-(3′-chloro-4′-fluorophenylamino)-6-[2-(2,6-diazaspiro[3.4]octane-7-ketone-2-yl)-oxethyl]-7-m ethoxyquinazoline] | – |

From patent publication US9546179B2, “Heterocycle amido alkyloxy substituted quinazoline derivative and use thereof” (priority 2011, dated 2017)
